Experimental data reported in patent publication US10272082B2, “Combination ALS therapy” (Cytokinetics, Inc., priority 2011, dated 2019).
“Also recorded” adds a separate entry of the source.

Experiments:
CYP1A2 = target: T1, CYP1A2 (Homo sapiens, UniProt P05177); test: Mechanism-based inhibition of human CYP1A2 in vitro; format: in vitro ADME
T1 sequence (P05177 1-516): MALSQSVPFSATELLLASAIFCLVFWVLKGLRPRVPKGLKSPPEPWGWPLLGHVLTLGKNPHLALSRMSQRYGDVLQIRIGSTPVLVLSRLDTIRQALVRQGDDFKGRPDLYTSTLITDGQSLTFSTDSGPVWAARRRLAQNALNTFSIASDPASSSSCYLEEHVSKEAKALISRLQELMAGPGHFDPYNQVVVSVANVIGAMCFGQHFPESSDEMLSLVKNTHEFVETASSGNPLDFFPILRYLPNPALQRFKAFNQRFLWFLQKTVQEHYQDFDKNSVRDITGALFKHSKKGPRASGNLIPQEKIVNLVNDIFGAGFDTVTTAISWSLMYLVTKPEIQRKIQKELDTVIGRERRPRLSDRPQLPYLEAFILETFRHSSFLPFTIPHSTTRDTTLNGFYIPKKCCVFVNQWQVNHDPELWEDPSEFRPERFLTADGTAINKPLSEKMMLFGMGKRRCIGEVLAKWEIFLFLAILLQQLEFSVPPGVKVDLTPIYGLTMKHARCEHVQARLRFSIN

[1] = Example 4: twice-daily dose titration regimen of CK-2017357 in patients with ALS; format: in vivo
Source text: Patients enrolled in this clinical study were randomized, double-blind, and placebo-controlled.
Placebo patients underwent a similar dummy dose titration to maintain the blind. FIG. 4 illustrates the study design.

[2] = Previous clinical experiments with CK-2017357 once a day in the morning; format: in vivo, human
Source text: In previous clinical experiments, 1-(ethylpropyl)-6-ethynylimidazo[4,5-b]pyrazin-2-ol (CK-2017357) has been administered once a day in the morning. While improvements in patient and investigator global assessments, muscle fatigability and pulmonary function have been observed in these studies, dizziness has been a dose-limiting adverse event in both healthy volunteers and in patients with ALS. This example examines whether the maximum tolerable total daily dose of CK-2017357 can be increased by dividing the daily dose into two portions (morning and evening), and beginning treatment with a low dose and titrating upward to a target of 250 mg twice daily.

[3] = ALS patients
clinical = settings: human, plasma, CK-2017357 Cmax, 14 days, ALS patients
human hepatic microsomes = settings: in vitro; high concentrations required; cited from earlier work
[4] = repeated single daily doses 125-375 mg

## C#Cc1cnc2nc(O)n(C(CC)CC)c2n1 [CK-2017357, 6-Ethynyl-1-(pentan-3-yl)-1H-imidazo[4,5-b]pyrazin-2(3H)-one]
CYP1A2; read-out: K1 (inactivation constant)
  KI (inactivation): 1900 nM
CYP1A2; read-out: kinact (max rate constant for inactivation) (converted)
  kinact: 0.000517 s⁻¹
[1]; ALS patients
  safety and tolerability of twice-daily dose titration regimen: safe and well tolerated
[1]; CK-2017357 relative to placebo, ALS patients
  ALSFRS-R score and MVV: Encouraging trends toward increases
[1]; of 12 patients in whom it occurred
  patients in whom dizziness was self-limited: 6 patients
[1]; of the 12 patients in whom it occurred
  patients in whom dizziness was mild: 10 patients
[1]; of the 21 patients randomized to CK-2017357, twice-daily titration, riluzole 50 mg QD
  patients escalated to the highest total daily dose of 500 mg and completing three weeks of dosing: 14 patients
[1]; twice-daily dose titration 250-500 mg total daily, ALS patients
  most commonly reported treatment-emergent adverse event: dizziness
[2]; healthy volunteers and patients with ALS
  dose-limiting adverse event: dizziness
[2]; previous clinical experiments
  patient and investigator global assessments, muscle fatigability and pulmonary function: improvements
[3]; 125, 250, 375 mg daily for 14 days
  dose dependence of CK-2017357 pharmacokinetics: increased proportionally by dose; also recorded: predictable linear kinetics
[3]; at any dose of CK-2017357
  adverse event frequencies in the presence of riluzole: not altered
[3]; [4]
  plasma levels achieved steady state by: ≤ 8 days
  time to reach steady state: ≤ 1 week
[3]; repeated single daily doses
  plasma level four hours after dosing on Day 8 higher than four hours after first dose on Day 1: approximately 70%
[3]; riluzole 50 mg daily vs none
  effect of riluzole on CK-2017357 Cmax / plasma levels: no apparent effect of riluzole; also recorded: not affected
clinical; 50 mg, CK-2017357 daily dose 125 (mg), On Riluzole (50 mg daily)
  Cmax: 6000 ng/mL
clinical; 50 mg, CK-2017357 daily dose 250 (mg), On Riluzole (50 mg daily)
  Cmax: 8400 ng/mL
clinical; 50 mg, CK-2017357 daily dose 375 (mg), On Riluzole (50 mg daily)
  Cmax: 13500 ng/mL
clinical; 125 mg, CK-2017357 daily dose 125 (mg), No Riluzole
  Cmax: 4100 ng/mL
clinical; 250 mg, CK-2017357 daily dose 250 (mg), No Riluzole
  Cmax: 7400 ng/mL
clinical; 375 mg, CK-2017357 daily dose 375 (mg), No Riluzole
  Cmax: 12700 ng/mL

## CN(C)CCC=C1c2ccccc2CCc2ccccc21 [amitriptyline]
Human hepatic microsomes
  inhibition of the metabolism of riluzole by human hepatic microsomes: inhibition has been observed

## CN(C)CCCN1c2ccccc2CCc2ccc(Cl)cc21 [clomipramine]
Human hepatic microsomes
  inhibition of the metabolism of riluzole by human hepatic microsomes: inhibition has been observed

## O=C(O)Cc1ccccc1Nc1c(Cl)cccc1Cl [diclofenac]
Human hepatic microsomes
  inhibition of the metabolism of riluzole by human hepatic microsomes: inhibition has been observed

## CO[C@]12C[C@@H](COC(=O)c3cncc(Br)c3)CN(C)[C@@H]1Cc1cn(C)c3cccc2c13 [nicergoline]
Human hepatic microsomes
  inhibition of the metabolism of riluzole by human hepatic microsomes: inhibition has been observed
